Laboratory results as given in publication PMC6117091, “The C. difficile clnRAB operon initiates adaptations to the host environment in response to LL-37” (PLoS Pathogens, 2018).
Converted amounts (≈) assume the structure as drawn.

Assays:
C. difficile 630Δerm [1] = assay: Minimum inhibitory concentration (MIC); type: cell-based, Clostridioides difficile; conditions: Mueller-Hinton Broth, 24 h, 37°C, anaerobic, ~5 x 10^5 CFU/ml
Experimental: (§1) Minimum inhibitory concentrations (MIC) were determined as previously described. […] Briefly, overnight cultures of C. difficile strains were diluted 1:50 in Mueller-Hinton Broth (Difco) and grown to OD600 of 0.45 (~5 x 10^7 CFU/ml). Cultures were then diluted 1:10 in MHB and seeded at a further 1:10 dilution in a round-bottom 96-well plate prepared with serial dilutions of antimicrobials for a starting concentration of ~5 x 10^5 CFU/ml. Plates were incubated for 24 h at 37°C in the anaerobic chamber.

[2] = system: C. difficile clnAB mutant (MC935); assay: Minimum inhibitory concentration (MIC); type: cell-based, Clostridioides difficile; conditions: Mueller-Hinton Broth, 24 h, 37°C, anaerobic, ~5 x 10^5 CFU/ml
Experimental: as §1

[3] = system: C. difficile clnR mutant (MC885); assay: Minimum inhibitory concentration (MIC); type: cell-based, Clostridioides difficile; conditions: Mueller-Hinton Broth, 24 h, 37°C, anaerobic, ~5 x 10^5 CFU/ml
Experimental: as §1

C. difficile 630Δerm [4] = assay: Minimum bactericidal concentration (MBC); type: cell-based, Clostridioides difficile; conditions: 1:10 dilution into BHIS, 24 h, 37°C, anaerobic
[5] = system: C. difficile clnAB mutant (MC935); assay: Minimum bactericidal concentration (MBC); type: cell-based, Clostridioides difficile; conditions: 1:10 dilution into BHIS, 24 h, 37°C, anaerobic
C. difficile clnR mutant [6] = assay: clnR and clnA expression by qRT-PCR in LL-37; type: cell-based, Clostridioides difficile; conditions: 2 µg/ml LL-37, BHIS
Experimental: Fig 4 ClnR acts as a conditional repressor and inducer of clnRAB expression. […] RNA samples were collected and processed for qRT-PCR analysis as described in Methods. Graphs show the mean mRNA expression levels of A) clnR and B) clnA relative to expression in strain 630Δerm in BHIS alone. […] Data were analyzed by two-way ANOVA and Tukey’s multiple comparisons test, with comparisons indicated by brackets. * indicates p < 0.05, ** indicates p ≤ 0.0001.

[7] = system: TcdA in C. difficile 630Δerm (parent strain); assay: TcdA western blot; conditions: 2 μg/ml LL-37, TY medium, 24 h, 37°C; three replicates
[8] = system: TcdA in C. difficile clnR and clnAB mutants; assay: TcdA western blot; conditions: 2 μg/ml LL-37, TY medium, 24 h, 37°C
C. difficile 630Δerm [9] = assay: qRT-PCR of selected RNA-seq transcripts in LL-37; conditions: 2 µg/ml LL-37; normalized to 630∆erm in BHIS; mean ± SEM, n ≥ 3
C. difficile clnR mutant [10] = assay: qRT-PCR of selected RNA-seq transcripts in LL-37; conditions: 2 µg/ml LL-37; normalized to 630∆erm in BHIS; mean ± SEM, n ≥ 3
[11] = system: C. difficile clnAB mutant; assay: qRT-PCR of selected RNA-seq transcripts in LL-37; conditions: 2 µg/ml LL-37; normalized to 630∆erm in BHIS; mean ± SEM, n ≥ 3
[12] = system: C. difficile clnR Tn::clnRAB; assay: qRT-PCR of selected RNA-seq transcripts in LL-37; conditions: 2 µg/ml LL-37; normalized to 630∆erm in BHIS; mean ± SEM, n ≥ 3
[13] = system: C. difficile clnAB Tn::clnRAB; assay: qRT-PCR of selected RNA-seq transcripts in LL-37; conditions: 2 µg/ml LL-37; normalized to 630∆erm in BHIS; mean ± SEM, n ≥ 3
C. difficile 630Δerm [14] = assay: Growth in minimal medium with LL-37, maximum doubling time; conditions: mean ± SD, n ≥ 3
C. difficile clnR mutant [15] = assay: as above; conditions: mean ± SD, n ≥ 3
[16] = system: C. difficile clnAB mutant; assay: as above; conditions: mean ± SD, n ≥ 3
[17] = system: C. difficile clnR Tn::clnRAB; assay: as above; conditions: mean ± SD, n ≥ 3
[18] = system: C. difficile clnAB Tn::clnRAB; assay: as above; conditions: mean ± SD, n ≥ 3
[19] = system: clnR expression in C. difficile 630Δerm; assay: clnR expression by qRT-PCR after exposure to antimicrobials (induction specificity); conditions: 2 μg/ml, BHIS; normalized to 630Δerm in BHIS without antimicrobials; mean of three replicates ± SEM
[20] = 0.5 µg/ml LL-37, MM + 30 mM NAG, § p < 0.05 vs no LL-37
[21] = 0.5 µg/ml LL-37, MM + 30 mM ethanolamine
[22] = 0.5 µg/ml LL-37, MM + 30 mM fructose
[23] = 0.5 µg/ml LL-37, MM + 30 mM glucose
[24] = 0.5 µg/ml LL-37, MM + 30 mM mannitol
[25] = 0.5 µg/ml LL-37, MM + 30 mM mannose
[26] = 0.5 µg/ml LL-37, MM + 30 mM NAG

## CC[C@H](C)[C@H](NC(=O)[C@H](CCCCN)NC(=O)[C@H](CCC(=O)O)NC(=O)[C@H](CCCCN)NC(=O)[C@H](CO)NC(=O)[C@H](CCCCN)NC(=O)[C@H](CCCNC(=N)N)NC(=O)[C@H](Cc1ccccc1)NC(=O)[C@H](Cc1ccccc1)NC(=O)[C@H](CC(=O)O)NC(=O)CNC(=O)[C@H](CC(C)C)NC(=O)[C@@H](N)CC(C)C)C(=O)NCC(=O)N[C@@H](CCCCN)C(=O)N[C@@H](CCC(=O)O)C(=O)N[C@@H](Cc1ccccc1)C(=O)N[C@@H](CCCCN)C(=O)N[C@@H](CCCNC(=N)N)C(=O)N[C@H](C(=O)N[C@H](C(=O)N[C@@H](CCC(N)=O)C(=O)N[C@@H](CCCNC(=N)N)C(=O)N[C@H](C(=O)N[C@@H](CCCCN)C(=O)N[C@@H](CC(=O)O)C(=O)N[C@@H](Cc1ccccc1)C(=O)N[C@@H](CC(C)C)C(=O)N[C@@H](CCCNC(=N)N)C(=O)N[C@@H](CC(N)=O)C(=O)N[C@@H](CC(C)C)C(=O)N[C@H](C(=O)N1CCC[C@H]1C(=O)N[C@@H](CCCNC(=N)N)C(=O)N[C@H](C(=O)N[C@@H](CCC(=O)O)C(=O)N[C@@H](CO)C(=O)O)[C@@H](C)O)C(C)C)[C@@H](C)CC)C(C)C)[C@@H](C)CC [LL-37]
C. difficile 630Δerm [1]
  MIC: 15 µg/mL (≈ 3.34 µM)
[2]
  MIC: 15 µg/mL (≈ 3.34 µM)
[3]
  MIC: 15 µg/mL (≈ 3.34 µM)
C. difficile 630Δerm [4]
  MBC: 20 µg/mL (≈ 4.45 µM)
[5]
  MBC: 20 µg/mL (≈ 4.45 µM)
C. difficile clnR mutant [6]
  clnR and clnA expression (in words): no longer induced in the clnR mutant
[7]
  TcdA levels, fold decrease: about 3 fold
[8]
  TcdA levels (in words): TcdA levels did not change
C. difficile 630Δerm [9]
  CD630_02840 relative expression: 29.3 ± 18.8
  grdA (CD630_23520) relative expression: 16.5 ± 10.5
  iorA (CD630_23810) relative expression: 16.8 ± 8.4
  mtlA (CD630_23340) relative expression: 1.0 ± 0.3
  sigU (csfU; CD630_18870) relative expression: 10.5 ± 6.8
C. difficile clnR mutant [10]
  CD630_02840 relative expression: 2.2 ± 0.5
  cstA (CD630_26000) relative expression: 2.3 ± 0.5
  grdA (CD630_23520) relative expression: 1.4 ± 0.1
  mtlA (CD630_23340) relative expression: 1.2 ± 0.7
  sigT (csfT; CD630_06770) relative expression: 2.3 ± 1.1
  sigU (csfU; CD630_18870) relative expression: 2.0 ± 0.6
  vanZ1 (CD630_12400) relative expression: 13.4 ± 5.8
[11]
  cstA (CD630_26000) relative expression: 2.9 ± 1.2
  iorA (CD630_23810) relative expression: 20.5 ± 7.3
  mtlA (CD630_23340) relative expression: 5.5 ± 4.3
  sigT (csfT; CD630_06770) relative expression: 1.2 ± 0.1
  sigU (csfU; CD630_18870) relative expression: 3.1 ± 1.4
  vanZ1 (CD630_12400) relative expression: 0.9 ± 0.2
[12]
  CD630_02840 relative expression: 602.6 ± 455.6
  cstA (CD630_26000) relative expression: 36.3 ± 21.3
  grdA (CD630_23520) relative expression: 1649.2 ± 814.6
  mtlA (CD630_23340) relative expression: 0.6 ± 0.2
[13]
  cstA (CD630_26000) relative expression: 1.3 ± 0.2
  grdA (CD630_23520) relative expression: 1.6 ± 0.2
  mtlA (CD630_23340) relative expression: 0.7 ± 0.4
  sigT (csfT; CD630_06770) relative expression: 1.2 ± 0.2
  sigU (csfU; CD630_18870) relative expression: 0.8 ± 0.1
  vanZ1 (CD630_12400) relative expression: 0.6 ± 0.1
C. difficile 630Δerm [14]; [20]
  Doubling time: 91.5 ± 5.7 min
C. difficile 630Δerm [14]; [21]
  Doubling time: 90.7 ± 7.9 min
C. difficile 630Δerm [14]; [22]
  Doubling time: 70.2 ± 3.9 min
C. difficile 630Δerm [14]; [23]
  Doubling time: 67.7 ± 4.9 min
C. difficile 630Δerm [14]; [24]
  Doubling time: 69.9 ± 3.4 min
C. difficile 630Δerm [14]; [25]
  Doubling time: 70.3 ± 5.5 min
C. difficile 630Δerm [14]; 0.5 µg/ml LL-37, base MM
  Doubling time: 82.2 ± 5.1 min
C. difficile clnR mutant [15]; [26]
  Doubling time: 86.6 ± 2.5 min
C. difficile clnR mutant [15]; [21]
  Doubling time: 84.9 ± 4.6 min
C. difficile clnR mutant [15]; [22]
  Doubling time: 72.4 ± 0.9 min
C. difficile clnR mutant [15]; [23]
  Doubling time: 74.0 ± 1.7 min
C. difficile clnR mutant [15]; [24]
  Doubling time: 67.3 ± 1.5 min
C. difficile clnR mutant [15]; [25]
  Doubling time: 78.4 ± 4.9 min
C. difficile clnR mutant [15]; 0.5 µg/ml LL-37, base MM
  Doubling time: 74.1 ± 4.8 min
[16]; [20]
  Doubling time: 80.3 ± 1.0 min
[16]; [21]
  Doubling time: 79.6 ± 9.0 min
[16]; [22]
  Doubling time: 65.1 ± 2.0 min
[16]; [23]
  Doubling time: 62.1 ± 2.2 min
[16]; [24]
  Doubling time: 58.3 ± 5.5 min
[16]; [25]
  Doubling time: 66.8 ± 4.5 min
[16]; 0.5 µg/ml LL-37, base MM
  Doubling time: 77.1 ± 5.3 min
[17]; [26]
  Doubling time: 111.1 ± 16.5 min
[17]; [21]
  Doubling time: 93.4 ± 12.2 min
[17]; [22]
  Doubling time: 80.4 ± 7.4 min
[17]; [23]
  Doubling time: 76.4 ± 5.4 min
[17]; [24]
  Doubling time: 75.6 ± 5.3 min
[17]; [25]
  Doubling time: 80.4 ± 8.3 min
[17]; 0.5 µg/ml LL-37, base MM, § p < 0.05 vs no LL-37
  Doubling time: 84.8 ± 4.5 min
[18]; [20]
  Doubling time: 83.6 ± 1.7 min
[18]; [21]
  Doubling time: 84.0 ± 6.7 min
[18]; [22]
  Doubling time: 69.8 ± 2.5 min
[18]; [23]
  Doubling time: 70.8 ± 4.8 min
[18]; [24]
  Doubling time: 66.4 ± 1.8 min
[18]; [25]
  Doubling time: 72.6 ± 3.1 min
[18]; 0.5 µg/ml LL-37, base MM
  Doubling time: 76.4 ± 2.6 min
[19]
  Relative clnR expression: 530.1 ±110.5
